Experimental data: patent US20230172920A1, “DOSING REGIMEN FOR TREATING A DISEASE MODULATED BY CSF-1R” (Novartis AG, priority 2020, published 2023)
Where two headings read alike, the source gives them in different places.

Key:
[1] = Phase I/II first-in-human study CBLZ945X2101: adverse events; format: in vivo
Description: The purpose of this first-in-human (FIH) study of BLZ945 given as a single agent or in combination with spartalizumab is to characterize the safety, tolerability, pharmacokinetics (PK), pharmacodynamics, and anti-tumor activity of BLZ945, administered orally, as a single agent or in combination with spartalizumab, administered intravenously (i.v.) in adult patients with advanced solid tumors.
This study is a FIH, open-label, multi-center, phase I/II, study which consists of a phase I dose escalation part of BLZ945 as single agent (including a separate Japanese BLZ945 single agent dose escalation arm) and in combination with spartalizumab. Alternative dosing regimens of BLZ945 may be evaluated. BLZ945 is being administered orally, and spartalizumab is being administered i.v. every four weeks until patient experiences unacceptable toxicity, progressive disease and/or treatment is discontinued at the discretion of the Investigator or the patient.
BLZ945 dosing is being evaluated on the following schedules, 7 days on/7 days off (i.e., administer BLZ945 every day for 7 days and suspend for 7 days), once weekly (Q1W), and 4 days on/10 days off (i.e., administer BLZ945 every day for 4 days and suspend for 10 days). For each of these schedules, once per day (OD) or twice per day (BID) dosing may be evaluated. For once daily administration, patients should take their dose at approximately the same time in the morning. For the twice a day dosing, the first dose should be taken in the morning and the second dose should be taken approximately 10 to 12 hours after the morning dose.
All patients treated with either BLZ945 single agent or in combination with spartalizumab will begin study treatment on Cycle 1 Day 1. Each cycle will consist of 28 days. […]
As mentioned above, nausea, vomiting have been commonly observed to occur with single-agent administration of BLZ945 in the first-in-human trial (CBLZ945X2101). […] An additional cohort to evaluate 7 days on may also be evaluated.

microglia [2] = assay: CNS microglia clearance in mice, Iba1/Aif-1 staining of cortex (RD-2019-00100); format: in vivo; conditions: for microglial depletion / microglial reduction: 5 consecutive days; for microglia brain repopulation: 169 mg/kg qd 5 days; for microglia depleted in the cortex: 169 mg/kg qd
Experimental: (§1) Several studies were performed to understand PK/PD relationships for CNS microglia clearance in mice. In the first study (RD-2019-00100) mice were treated once daily (qd) for between 1 and 5 consecutive days with a dose of 169 mg/kg BLZ945. Additionally, two dose groups received 169 mg/kg BLZ945 for 5 consecutive days followed by either 3 or 7 days of drug withdrawal (washout). […] Pharmacokinetic analysis was performed on blood and brain samples taken from each group at 3 hours after the final dose on the indicated necropsy day. […] Exposures dropped by more than 1000-fold following the washout period (FIG. 8 B).
(§2) FIG. 8: (A) Microglial depletion in the cortex, as assessed by Iba1/Aif-1 immunohistological staining at necropsy. Sections were analyzed for total number of microglia cell bodies per sample area. Values are group means±SD (n=3). (B) Exposure of BLZ945 in blood and brain 3 hours after the last dose on the day of necropsy. Values are group means (n=3).
(§3) In a follow-up study (RD-2019-00100), mice were treated with BLZ945 for 5 consecutive days with a range of doses from 7 to 169 mg/kg. The two lowest doses of 7 mg/kg and 20 mg/kg were ineffective for microglial depletion. […] Here the ratio of brain to blood exposures was approximately 30% at the four lowest doses and approximately 55% at the highest dose (FIG. 9 B).
(§4) FIG. 9: Dose-dependent reduction of microglia. (A) Mice were treated for 5 consecutive days with BLZ945 at the indicated doses. Samples were analyzed histologically by Iba1/Aif-1 staining and quantified for total microglia cell bodies per sample area. Data are group means±SD (n=3). (B) Exposure of BLZ945 in blood and brain following 5 consecutive days of dosing at multiple doses. Values are group means±SD (n=3).

[3] = Blood and brain exposure in mice (RD-2019-00100); format: in vivo; conditions: for Kp at 5 days: read-out: ratio of brain to blood exposures
Experimental: as §1, §2, §3, §4

microglia [4] = assay: Microglia depletion in lumbar spinal cord, Iba1 qPCR, 8-week SOD1G93A efficacy study (RD-2019-00092); format: in vivo, SOD1G93A mouse; conditions: for microglia depleted (lumbar spinal cord): 8 weeks
Experimental: BLZ945 was dosed over an 8-week period in a mouse model of ALS (in house data). BLZ945 was tested for efficacy in preventing or delaying disease progression in the SOD1G93A ALS mouse (RD-2019-00092). […] Normal body weight gain is also impaired in this model. These physiological impairments are considered as mechanistic readouts given that they best recapitulate the clinical disease phenotype (Turner et al 2013). Animals were dosed from 8 to 16 weeks of age with daily (q.d) doses of BLZ945 at either 65 mg/kg, 170 mg/kg, or 170 mg/kg delivered intermittently with a 7 day ON/7 day OFF regimen.
Microglia were depleted by greater than 90% with the high dose (170 mg/kg) of BLZ945 and by about 50% with the low dose (65 mg/kg). […] Blood and CNS exposure to BLZ945 were measured at 3 hours post-dose on the day of necropsy (Table 8). BLZ945 spinal cord exposure ratios (relative to blood) were consistent across dose groups at approximately 0.4 (Table 9).
FIG. 11: Microglia depletion in the lumbar spinal cord, assessed by Iba1 transcript expression by qPCR. Samples were collected at necropsy on the final day of dosing of the eight-week study. Values are group means±SD (n=12-15). Data are presented as fold changes in comparison to the SOD1 vehicle-treated group. Statistical analyses were by Kruskal-Wallis test with Dunn's multiple comparison

CNC(=O)c1cc(Oc2ccc3nc(N[C@@H]4CCCC[C@H]4O)sc3c2)ccn1 [BLZ945, 4-((2-(((1R,2R)-2-hydroxycyclohexyl)amino)benzo[d]thiazol-6-yl)oxy)-N-methylpicolinamide]
most frequently reported AEs (>10%) suspected to be related to treatment ([1]; in vivo): aspartate aminotransferase (AST) increased, nausea, vomiting, alanine aminotransferase (ALT) increased, fatigue, amylase increased, blood creatine phosphokinase increased and decreased appetite
serum enzyme elevation ([1]; in vivo): Asymptomatic serum enzyme elevation including AST, ALT, CK and alkaline phosphatase elevations
suspected SAEs (grade and kind) ([1]; single agent arm, combination arm): Grade 3 AST increased, Grade 3 asthenia and Grade 4 sudden death
microglial depletion (microglia [2]; 7 mg/kg): ineffective
microglial depletion (microglia [2]; 20 mg/kg): ineffective
microglial reduction (microglia [2]; 60 mg/kg): 25%
microglial reduction (microglia [2]; 100 mg/kg): 60%
microglia brain repopulation (microglia [2]; then 3 days washout): ~80 % of vehicle
microglia brain repopulation (microglia [2]; then 7 days washout): complete repopulation
microglia depleted in the cortex (microglia [2]; day 2): approximately 50%
microglia depleted in the cortex (microglia [2]; day 5): approximately 90%
microglial reduction (microglia [2]; 169 mg/kg): 100%
drop of exposures following washout ([3]; 169 mg/kg qd 5 days, then 3 or 7 days washout): more than 1000 fold
accumulation with daily dosing (blood and brain exposures) ([3]; 169 mg/kg qd, consecutive dosing days): lack of accumulation
dose dependence of blood and brain exposures ([3]; 7 to 169 mg/kg, 5 consecutive days): linear increases in both blood and brain exposures with increased doses
Kp at 3 h ([3]; mouse, brain relative to blood, 169 mg/kg qd, 1-5 days, 3 hours after final dose): ~0.5
Kp at 5 days ([3]; mouse, brain relative to blood, four lowest doses (7-100 mg/kg), 5 consecutive days): ~0.3
Kp at 5 days ([3]; mouse, brain relative to blood, highest dose (169 mg/kg), 5 consecutive days): ~0.55
microglia depleted (lumbar spinal cord) (microglia [4]; 65 mg/kg q.d.): about 50%
microglia recovery compared to high dose animals (microglia [4]; 170 mg/kg 7 day ON/7 day OFF, sacrificed at 7 days off): greater than 50%
microglia depleted (lumbar spinal cord) (microglia [4]; 170 mg/kg q.d. continuous): greater than 90%
